Measured values published in patent US12171755B2, “PAPD5 inhibitors and methods of use thereof” (Children's Medical Center Corporation, priority 2017, dated 2024).

Molecular target: T1, PAPD5 (Homo sapiens, UniProt Q8NDF8)
T1 construct: made in house
Assay: High-throughput luminescence (KinaseGlo) RNA polyadenylation assay, ATP utilization by recombinant PAPD5
Format: biochemical
Conditions: Table 4 (entries of Table 5), ratio of luminescence with inhibitor to DMSO; for Fold-change determined at compound concentration 33 μM: 33 μM compound; for Fold-change determined at compound concentration 100 μM: 100 μM compound, higher = higher inhibition
Method in brief: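 Recombinant PAPD5 polyadenylates an oligonucleotide substrate using ATP, and remaining ATP is read by KinaseGlo luciferase luminescence. Compound was incubated for 2 h at room temperature, then with luciferase for 10 min.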

T1 sequence (Q8NDF8 68-698 isoform Q8NDF8-5): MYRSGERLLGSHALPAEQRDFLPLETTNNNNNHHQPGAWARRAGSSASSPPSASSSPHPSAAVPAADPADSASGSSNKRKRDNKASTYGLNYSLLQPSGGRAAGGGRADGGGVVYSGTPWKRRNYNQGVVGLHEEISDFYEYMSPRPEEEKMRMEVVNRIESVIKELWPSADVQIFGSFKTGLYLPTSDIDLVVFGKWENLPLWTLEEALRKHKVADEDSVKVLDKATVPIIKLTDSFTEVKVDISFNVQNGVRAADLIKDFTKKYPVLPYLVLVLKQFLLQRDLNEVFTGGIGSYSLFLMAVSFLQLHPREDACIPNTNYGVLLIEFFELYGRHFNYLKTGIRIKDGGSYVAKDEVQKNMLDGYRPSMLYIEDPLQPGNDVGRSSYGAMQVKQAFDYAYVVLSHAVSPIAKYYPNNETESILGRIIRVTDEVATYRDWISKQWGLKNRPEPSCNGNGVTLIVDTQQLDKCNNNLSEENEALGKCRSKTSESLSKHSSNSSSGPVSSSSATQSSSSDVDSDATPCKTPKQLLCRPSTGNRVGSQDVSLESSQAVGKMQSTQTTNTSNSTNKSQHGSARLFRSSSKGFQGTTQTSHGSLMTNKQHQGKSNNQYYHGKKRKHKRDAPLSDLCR

Structure (SMILES) | Fold-change determined at compound concentration 33 μM | Fold-change determined at compound concentration 100 μM | Fold-change determined at compound concentration 10 μM (10 μM compound)
Cc1ccc(C(=O)Nc2c(-c3ccccc3)nc3ccccn23)cc1 [Entry 190, 4-methyl-N-(2-phenylimidazo[1,2-a]pyridin-3-yl)benzamide] | 1.309 | 1.482 | 1.214
O=C(Nc1c(-c2ccccc2)nc2ccccn12)c1ccc(Br)cc1 [Entry 191, 4-bromo-N-(2-phenylimidazo[1,2-a]pyridin-3-yl)benzamide] | 1.225 | 1.296 | 
O=C(O)c1ccc(Nc2c(-c3cc(Br)ccc3O)nc3cnccn23)cc1 [Entry 192, 4-{[2-(5-bromo-2-hydroxyphenyl)imidazo[1,2-a]pyrazin-3-yl]amino}benzoic acid] | 1.106 | 1.419 | 
O=C(O)c1cccc(Nc2c(-c3cc(Br)ccc3O)nc3cnccn23)c1 [Entry 193, 3-{[2-(5-bromo-2-hydroxyphenyl)imidazo[1,2-a]pyrazin-3-yl]amino}benzoic acid] | 1.134 | 1.446 | 
COc1ccc(C2CC(=O)N3CN(C4CCCCC4)CSC3=C2C#N)cc1 (stereo not shown) [Entry 194, 3-cyclohexyl-8-(4-methoxyphenyl)-6-oxo-3,4,7,8-tetrahydro-2H,6H-pyrido[2,1-b][1,3,5]thiadiazine-9-carbonitrile] | 1.323 | 1.613 | 
CC(C)c1ccc(C2CC(=O)N3CN(C4CCCCC4)CSC3=C2C#N)cc1 (stereo not shown) [Entry 195, 3-cyclohexyl-6-oxo-8-(4-propan-2-ylphenyl)-2,4,7,8-tetrahydropyrido[2,1-b][1,3,5]thiadiazine-9-carbonitrile] | 1.072 | 1.228 | 
N#CC1=C2SCN(C3CCCCC3)CN2C(=O)CC1c1ccc(Br)cc1 (stereo not shown) [Entry 196, 8-(4-bromophenyl)-3-cyclohexyl-6-oxo-3,4,7,8-tetrahydro-2H,6H-pyrido[2,1-b][1,3,5]thiadiazine-9-carbonitrile] | 1.09 | 1.326 | 
COC(=O)c1c(NC(=O)c2ccccc2C(=O)O)sc2c1CCCC2 [Entry 199, 2-({[3-(methoxycarbonyl)-4,5,6,7-tetrahydro-1-benzothien-2-yl]amino}carbonyl)benzoic acid] | 1.199 | 1.607 | 
CCOC(=O)c1c(NC(=O)CSc2n[nH]c3nc(=O)cc(C)n23)sc2c1CCCCC2 [Entry 200, ethyl 2-[[2-[(5-methyl-7-oxo-1H-[1,2,4]triazolo[4,3-a]pyrimidin-3-yl)sulfanyl]acetyl]amino]-5,6,7,8-tetrahydro-4H-cyclohepta[b]thiophene-3-carboxylate] | 1.038 | 1.414 | 
O=C(NC1CC1)c1ccc(Cn2c(SCc3ccccc3Cl)nc3ccncc32)cc1 [Entry 202, 4-({2-[(2-chlorobenzyl)thio]-3H-imidazo[4,5-c]pyridin-3-yl]methyl)-N-cyclopropylbenzamide] | 1.164 | 1.361 | 
O=C(NCCN1CCCC1)c1ccc(Cn2c(SCc3ccc(Cl)cc3)nc3ccncc32)cc1 [Entry 203, 4-({2-[(4-chlorobenzyl)thio]-3H-imidazo[4,5-c]pyridin-3-yl}methyl)-N-(2-pyrrolidin-1-ylethyl)benzamide] | 1.106 | 1.31 | 
COc1ccc(OC)c2sc(N(CCCN(C)C)C(=O)c3ccco3)nc12 [Entry 207, N-(4,7-dimethoxy-1,3-benzothiazol-2-yl)-N-[3-(dimethylamino)propyl]furan-2-carboxamide] | 1.118 | 1.2 | 
Cc1ccc(-c2n[nH]c(=O)c3c2CCCC3)cc1S(=O)(=O)Nc1ccc(S(N)(=O)=O)cc1 [Entry 208, N-[4-(aminosulfonyl)phenyl]-2-methyl-5-(4-oxo-3,4,5,6,7,8-hexahydrophthalazin-1-yl)benzenesulfonamide] | 1.211 | 1.492 | 
CCOc1ccc(-c2noc(Cn3cnc4c(cnn4-c4ccccc4)c3=O)n2)cc1OC [Entry 217, 5-[[3-(4-ethoxy-3-methoxyphenyl)-1,2,4-oxadiazol-5-yl]methyl]-1-phenylpyrazolo[3,4-d]pyrimidin-4-one] | 1.114 | 1.245 | 

Further lines, results first:

Fold-change determined at compound concentration 33 μM | Fold-change determined at compound concentration 100 μM | Fold-change determined at compound concentration 10 μM (10 μM compound) | Structure (SMILES)
1.089 | 1.29 |  | COC(=O)c1cnn2c(=O)cc(CS(=O)(=O)c3ccc(C)cc3C)[nH]c12 [Entry 188, Methyl 5-{[(2,4-dimethylphenyl)sulfonyl]methyl}-7-oxo-4,7-dihydropyrazolo[1,5-a]pyrimidine-3-carboxylate]
1.206 | 1.311 |  | Cc1ccc(C(=O)Nc2c(-c3ccccc3)nc3ccccn23)cc1C [Entry 189, 3,4-dimethyl-N-(2-phenylimidazo[1,2-a]pyridin-3-yl)benzamide]
1.142 | 1.412 |  | COc1cc(C2CC(=O)Nc3c2sc(C(=O)O)c3-c2cccc(F)c2)ccc1OCC(N)=O (stereo not shown) [Entry 197, 7-[4-(2-amino-2-oxoethoxy)-3-methoxyphenyl]-3-(3-fluorophenyl)-5-oxo-4,5,6,7-tetrahydrothieno[3,2-b]pyridine-2-carboxylic acid]
1.084 | 1.264 |  | CCOc1cc(C2CC(=O)Nc3c2sc(C(=O)O)c3-c2cccc(F)c2)ccc1OCC(N)=O (stereo not shown) [Entry 198, 7-[4-(2-amino-2-oxoethoxy)-3-ethoxyphenyl]-3-(3-fluorophenyl)-5-oxo-4,5,6,7-tetrahydrothieno[3,2-b]pyridine-2-carboxylic acid]
1.073 | 1.229 |  | Cc1nn(-c2ccc(Cl)cc2)c2sc(C(=O)O)cc12 [Entry 204, 1-(4-Chloro-phenyl)-3-methyl-1H-thieno[2,3-c]pyrazole-5-carboxylic acid]
1.232 | 2.055 |  | Cn1nc(-c2ccc(Cl)cc2)c2cc(C(=O)O)sc21 [Entry 205, 3-(4-chlorophenyl)-1-methylthieno[2,3-c]pyrazole-5-carboxylic acid]
1.08 | 1.225 |  | CCS(=O)(=O)c1nc2ccc(NS(=O)(=O)c3ccc(F)c(F)c3)cc2s1 [Entry 206, N-(2-(ethylsulfonyl)benzo[d]thiazol-6-yl)-3,4-difluorobenzenesulfonamide]
1.093 | 1.274 |  | O=C(Cn1nc(Cc2ccncc2)c2ccccc2c1=O)N1CC=C(c2ccccc2)CC1 [Entry 209, 2-[2-oxo-2-(4-phenyl-3,6-dihydropyridin-1(2H)-yl)ethyl]-4-(pyridin-4-ylmethyl)phthalazin-1(2H)-one]
1.136 | 1.311 |  | O=C(O)c1csc2nc[nH]c(=O)c12 [Entry 210, 4-Oxo-3,4-dihydrothieno[2,3-d]pyrimidine-5-carboxylic acid]
1.065 | 1.217 |  | CCOC(=O)Cn1cnc2sc3c(c2c1=O)CCCC3 [Entry 211, Ethyl (4-oxo-5,6,7,8-tetrahydro[1]benzothieno[2,3-d]pyrimidin-3(4H)-yl)acetate]
1.077 | 1.799 |  | O=C1c2cnccc2CN1c1cc(F)ccc1F [Entry 212, 2-(2,5-difluorophenyl)-1H-pyrrolo[3,4-c]pyridin-3-one]
1.199 | 1.579 |  | Cc1ccc2c(c1)n(Cc1ccc(Cl)cc1)c(=O)c1nc(C(=O)O)nn12 [Entry 213, 5-(4-chlorobenzyl)-7-methyl-4-oxo-4,5-dihydro[1,2,4]triazolo[1,5-a]quinoxaline-2-carboxylic acid]
1.118 | 1.213 |  | Cc1nn(CC(=O)O)c(=O)c2cc3cc(F)ccc3n12 [Entry 214, 2-(8-fluoro-4-methyl-1-oxo-[1,2,4]triazino[4,5-a]indol-2-yl)acetic acid]
1.074 | 2.037 |  | O=C(O)c1cccn2c(=O)c3c4c(sc3nc12)CCCC4 [Entry 215, 12-oxo-1,2,3,4-tetrahydro-12H-[1]benzothieno[2,3-d]pyrido[1,2-a]pyrimidine-7-carboxylic acid]
1.103 | 1.239 |  | Cc1ccc(S(=O)(=O)NCc2ccc(-c3nn4cnnc4s3)cc2)cc1 [Entry 216, 4-methyl-N-[[4-([1,2,4]triazolo[3,4-b][1,3,4]thiadiazol-6-yl)phenyl]methyl]benzenesulfonamide]
1.096 | 1.304 |  | COc1cccc(NC(=O)c2ccc3c(=O)n4nc(Nc5ccccc5OC)sc4nc3c2)c1 [Entry 218, 2-(2-methoxyanilino)-N-(3-methoxyphenyl)-5-oxo-[1,3,4]thiadiazolo[2,3-b]quinazoline-8-carboxamide]
